The values below come from patent US8476298B2 (Exelixis, Inc., priority 2003, dated 2013).

Experiment [1] deals with T1, c-Met (baculovirus expressed human c-Met kinase domain P948-S1343) (Homo sapiens, UniProt P08581).
T1 construct: human c-Met kinase domain P948-S1343; host or cells: baculovirus expression
The experiment is described as follows: c-Met Luciferase-Coupled Chemiluminescent Kinase assay (LCCA).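 Note: kinase activity read as percent ATP left after reaction, by luciferase-luciferin chemiluminescence, with 1 µM ATP and 1 µM poly-EY substrate, 2 h at ambient temperature, 10-point dose-response.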 In kind it is biochemical.
Protocol: Kinase activity and compound inhibition are investigated using one or more of the three assay formats described below. The ATP concentrations for each assay are selected to be close to the Michaelis-Menten constant (KM) for each individual kinase. Dose-response experiments are performed at 10 different inhibitor concentrations in a 384-well plate format. […] Typically H is close to unity. c-Met Assay
c-Met biochemical activity was assessed using a Luciferase-Coupled Chemiluminescent Kinase assay (LCCA) format as described above. Again, kinase activity was measured as the percent ATP remaining following the kinase reaction. Remaining ATP was detected by luciferase-luciferin-coupled chemiluminescence. Specifically, the reaction was initiated by mixing test compounds, 1 μM ATP, 1 μM poly-EY and 10 nM c-Met (baculovirus expressed human c-Met kinase domain P948-S1343) in a 20 uL assay buffer (20 mM Tris-HCL pH7.5, 10 mM MgCl2, 0.02% Triton X-100, 100 mM DTT, 2 mM MnCu2). The mixture is incubated at ambient temperature for 2 hours after which 20 uL luciferase-luciferin mix is added and the chemiluminescent signal read using a Wallac Victor^2 reader.

For experiment [2], the target named is T2, KDR (baculovirus expressed human KDR kinase domain D807-V1356) (Homo sapiens, UniProt P35968).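 Note: Luciferase-coupled chemiluminescent kinase assay, activity read as percent ATP left after 4 h reaction at ambient temperature, ATP near KM, 10-point dose-response in 384-well plates.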
T2 construct: human KDR kinase domain D807-V1356; host or cells: baculovirus expression
The experiment is described as follows: biochemical.

Experiment [3] concerns the target T3, Flt-3 (baculovirus expressed human Flt-3 kinase domain R571-S993) (Homo sapiens, UniProt P36888).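 Note: Luciferase-coupled chemiluminescent kinase assay, activity read as percent ATP left after a 3 h reaction at room temperature, ATP near KM, 10-point dose-response.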
T3 construct: human Flt-3 kinase domain R571-S993; host or cells: baculovirus expression
T3 sequence (P36888 571-993): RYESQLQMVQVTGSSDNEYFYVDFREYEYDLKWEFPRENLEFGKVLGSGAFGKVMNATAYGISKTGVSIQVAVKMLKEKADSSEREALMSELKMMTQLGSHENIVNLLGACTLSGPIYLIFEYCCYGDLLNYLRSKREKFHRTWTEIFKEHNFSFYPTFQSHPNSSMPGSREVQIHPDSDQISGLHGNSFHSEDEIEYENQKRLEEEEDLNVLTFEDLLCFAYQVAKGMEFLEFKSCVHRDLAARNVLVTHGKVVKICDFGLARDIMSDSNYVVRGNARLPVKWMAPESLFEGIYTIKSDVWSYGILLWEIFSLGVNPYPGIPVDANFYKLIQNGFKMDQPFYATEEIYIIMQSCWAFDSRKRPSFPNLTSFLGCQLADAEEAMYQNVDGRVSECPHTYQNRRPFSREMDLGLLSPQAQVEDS
The experiment is described as follows: biochemical. Conditions: read-out: flt3 IC50.
Protocol: Kinase activity and compound inhibition are investigated using one or more of the three assay formats described below. The ATP concentrations for each assay are selected to be close to the Michaelis-Menten constant (KM) for each individual kinase. Dose-response experiments are performed at 10 different inhibitor concentrations in a 384-well plate format.
Biochemical activity for flt-3 was assessed using a Luciferase-Coupled Chemiluminescent Kinase assay (LCCA) format. Kinase activity was measured as the percent ATP remaining following the kinase reaction. Remaining ATP was detected by luciferase-luciferin-coupled chemiluminescence. […] The mixture is incubated at ambient temperature for 3 hours after which 20 uL luciferase-luciferin mix is added and the chemiluminescent signal read using a Wallac Victor^2 reader.

T2 sequence (P35968 807-1356): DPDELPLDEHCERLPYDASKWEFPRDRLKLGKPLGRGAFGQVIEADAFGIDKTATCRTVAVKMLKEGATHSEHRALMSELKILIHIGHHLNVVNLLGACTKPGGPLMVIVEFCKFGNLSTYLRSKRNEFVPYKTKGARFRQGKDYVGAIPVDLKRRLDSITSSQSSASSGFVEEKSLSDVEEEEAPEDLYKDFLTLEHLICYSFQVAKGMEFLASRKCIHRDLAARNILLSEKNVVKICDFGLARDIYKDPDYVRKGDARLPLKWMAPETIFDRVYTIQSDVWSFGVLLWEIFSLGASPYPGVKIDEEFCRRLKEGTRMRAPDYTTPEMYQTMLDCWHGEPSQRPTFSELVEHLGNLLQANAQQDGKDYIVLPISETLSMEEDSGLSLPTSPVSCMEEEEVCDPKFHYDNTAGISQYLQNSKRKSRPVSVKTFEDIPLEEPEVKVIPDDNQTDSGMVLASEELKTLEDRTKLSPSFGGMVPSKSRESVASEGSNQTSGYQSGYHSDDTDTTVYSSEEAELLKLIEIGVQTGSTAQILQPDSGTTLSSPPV
T1 sequence (P08581 1011-1343 limits assumed): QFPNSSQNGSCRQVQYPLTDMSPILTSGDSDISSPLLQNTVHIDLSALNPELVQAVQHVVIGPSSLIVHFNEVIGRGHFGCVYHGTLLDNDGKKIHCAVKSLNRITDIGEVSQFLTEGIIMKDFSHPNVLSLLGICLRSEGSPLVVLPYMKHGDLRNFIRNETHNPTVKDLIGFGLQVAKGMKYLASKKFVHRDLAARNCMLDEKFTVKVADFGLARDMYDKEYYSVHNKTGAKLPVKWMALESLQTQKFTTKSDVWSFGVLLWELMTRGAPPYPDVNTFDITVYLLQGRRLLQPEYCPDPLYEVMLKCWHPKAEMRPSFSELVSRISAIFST

Take `COc1cc2nccc(Oc3ccc(NC(=O)C4(C(=O)Nc5ccccc5CN5CCOCC5)CC4)cc3)c2cc1OC` [Example 397, N-(4-{[6,7-bis(methyloxy)quinolin-4-yl]oxy}phenyl)-N′-[2-(morpholin-4-ylmethyl)phenyl]cyclopropane-1,1-dicarboxamide]: the values for the IC50 in experiment [1], in experiment [2] and in experiment [3] were 0.05 to 0.5 µM, 0.5 to 5 µM and 0.05 to 0.5 µM, respectively.
`COc1cc2c(Oc3ccc(NC(=O)[C@]4(C(=O)Nc5ccc(F)cc5)C[C@H]4C)cc3F)ncnc2cc1OCCCN1CCNCC1` [Example 390, (1R,2R)-N-[3-fluoro-4-({6-(methyloxy)-7-[(3-piperazin-1-ylpropyl)oxy]quinazolin-4-yl}oxy)phenyl]-N′-(4-fluorophenyl)-2-methylcyclopropane-1,1-dicarboxamide]: the 50% inhibitory concentration (IC50) in experiment [1], in experiment [2] and in experiment [3] was less than 0.05 µM each time.
As for `CCN(CC)CCCOc1cc2nccc(Oc3ccc(NC(=O)[C@]4(C(=O)Nc5ccc(F)cc5)C[C@@H]4C)cc3F)c2cc1OC` [Example 361, (1R,2S)-N-(4-{[7-{[3-(diethylamino)propyl]oxy}-6-(methyloxy)quinolin-4-yl]oxy}-3-fluorophenyl)-N′-(4-fluorophenyl)-2-methylcyclopropane-1,1-dicarboxamide], the IC50 in experiment [1], in experiment [2] and in experiment [3] was less than 0.05 µM each time.
For `COc1cc2c(Oc3ccc(NC(=O)C4(C(=O)Nc5ccc(F)cc5)CC4)cc3F)ccnc2cc1OCCCN1CCN(C(C)C)CC1` [Example 357, N-(3-fluoro-4-{[7-({3-[4-(1-methylethyl)piperazin-1-yl]propyl}oxy)-6-(methyloxy)quinolin-4-yl]oxy}phenyl)-N′-(4-fluorophenyl)cyclopropane-1,1-dicarboxamide], the IC50 in experiment [1], in experiment [2] and in experiment [3] was less than 0.05 µM in each case.
With `CCN(CC)CCCOc1cc2ncnc(Oc3ccc(NC(=O)[C@]4(C(=O)Nc5ccc(F)cc5)C[C@H]4C)cc3F)c2cc1OC` [Example 386, (1R,2R)-N-(4-{[7-{[3-(diethylamino)propyl]oxy}-6-(methyloxy)quinazolin-4-yl]oxy}-3-fluorophenyl)-N′-(4-fluorophenyl)-2-methylcyclopropane-1,1-dicarboxamide], the IC50 in experiment [1], in experiment [2] and in experiment [3] was less than 0.05 µM in each case.
Turning to `CCN(CC)CCCOc1cc2nccc(Oc3ccc(NC(=O)C4(C(=O)Nc5ccc(F)cc5)[C@H](C)[C@H]4C)cc3F)c2cc1OC` (stereo partly drawn) [Example 371, (2R,3R)-N-(4-{[7-{[3-(diethylamino)propyl]oxy}-6-(methyloxy)quinolin-4-yl]oxy}-3-fluorophenyl)-N′-(4-fluorophenyl)-2,3-dimethylcyclopropane-1,1-dicarboxamide], the IC50 (as a rule, the midpoint of a concentration-inhibition curve) is less than 0.05 µM in experiment [1], less than 0.05 µM in experiment [2] and 0.05 to 0.5 µM in experiment [3].
Consider `CCN(CC)CCOc1cc2nccc(Oc3ccc(NC(=O)C4(C(=O)Nc5ccc(F)cc5)[C@H](C)[C@H]4C)cc3F)c2cc1OC` (stereo partly drawn) [Example 391, (2R,3R)-N-(4-{[7-{[2-(diethylamino)ethyl]oxy}-6-(methyloxy)quinolin-4-yl]oxy}-3-fluorophenyl)-N′-(4-fluorophenyl)-2,3-dimethylcyclopropane-1,1-dicarboxamide], for which the figures for the half-inhibitory concentration (IC50) in experiment [1], in experiment [2] and in experiment [3] were less than 0.05 µM, less than 0.05 µM and 0.05 to 0.5 µM, respectively.
Turning to `COc1cc2c(Oc3ccc(NC(=O)C4(C(=O)Nc5ccc(F)cc5)CC4(C)C)cc3F)ncnc2cc1OCCCN1CCOCC1` (stereo not drawn) [Example 373, N-[3-fluoro-4-({6-(methyloxy)-7-[(3-morpholin-4-ylpropyl)oxy]quinazolin-4-yl}oxy)phenyl]-N′-(4-fluorophenyl)-2,2-dimethylcyclopropane-1,1-dicarboxamide], the IC50 in experiment [1] was less than 0.05 µM; in experiment [2] it was less than 0.05 µM; in experiment [3], 0.5 to 5 µM.
Consider `CCN(CC)CCOc1cc2ncnc(Oc3ccc(NC(=O)[C@]4(C(=O)Nc5ccc(F)cc5)C[C@H]4C)cc3F)c2cc1OC` [Example 348, (1R,2R)-N-(4-{[7-{[2-(diethylamino)ethyl]oxy}-6-(methyloxy)quinazolin-4-yl]oxy}-3-fluorophenyl)-N′-(4-fluorophenyl)-2-methylcyclopropane-1,1-dicarboxamide], for which the concentration for half-maximal inhibition (IC50) was less than 0.05 µM in experiment [1], less than 0.05 µM in experiment [2] and 0.05 to 0.5 µM in experiment [3].
As to `CCN(CC)CCOc1cc2nccc(Oc3ccc(NC(=O)C4(C(=O)Nc5ccc(F)cc5)CC4(C)C)cc3F)c2cc1OC` (stereo not drawn) [Example 375, N-(4-{[7-{[2-(diethylamino)ethyl]oxy}-6-(methyloxy)quinolin-4-yl]oxy}-3-fluorophenyl)-N′-(4-fluorophenyl)-2,2-dimethylcyclopropane-1,1-dicarboxamide], the IC50 in experiment [1] was less than 0.05 µM; in experiment [2] it was less than 0.05 µM; in experiment [3], 0.5 to 5 µM.
Regarding `COc1cc2c(Oc3ccc(NC(=O)[C@@]4(C(=O)Nc5ccc(F)cc5)[C@H](C)[C@@H]4C)cc3F)ncnc2cc1OCCCN1CCOCC1` [Example 367, (1r,2R,3S)-N-[3-fluoro-4-({6-(methyloxy)-7-[(3-morpholin-4-ylpropyl)oxy]quinazolin-4-yl}oxy)phenyl]-N′-(4-fluorophenyl)-2,3-dimethylcyclopropane-1,1-dicarboxamide], the 50% inhibitory concentration (IC50) in experiment [1] was 0.05 to 0.5 µM; in experiment [2], less than 0.05 µM; in experiment [3], 0.05 to 0.5 µM.
In the case of `COc1cc2c(Oc3ccc(NC(=O)C4(C(=O)Nc5ccc(F)cc5)CC4)cc3F)ccnc2cc1OCCCN1CCN(C(C)=O)CC1` [Example 350, N-(4-{[7-{[3-(4-acetylpiperazin-1-yl)propyl]oxy}-6-(methyloxy)quinolin-4-yl]oxy}-3-fluorophenyl)-N′-(4-fluorophenyl)cyclopropane-1,1-dicarboxamide], the IC50 in experiment [1], in experiment [2] and in experiment [3] was less than 0.05 µM each time.
Regarding `COc1cc2c(Oc3ccc(NC(=O)C4(C(=O)Nc5ccc(F)cc5)CCC4)cc3F)ncnc2cc1OCCCN1CCOCC1` [Example 369, N-[3-fluoro-4-({6-(methyloxy)-7-[(3-morpholin-4-ylpropyl)oxy]quinazolin-4-yl}oxy)phenyl]-N′-(4-fluorophenyl)cyclobutane-1,1-dicarboxamide], the IC50 in experiment [1] was 0.05 to 0.5 µM; in experiment [2] it was less than 0.05 µM; in experiment [3], 0.05 to 0.5 µM.
On to `COc1cc2c(Oc3ccc(NC(=O)C4(C(=O)Nc5ccc(F)cc5)CCC4)cc3F)ncnc2cc1OCCCN1CCNCC1` [Example 382, N-[3-fluoro-4-({6-(methyloxy)-7-[(3-piperazin-1-ylpropyl)oxy]quinazolin-4-yl}oxy)phenyl]-N′-(4-fluorophenyl)cyclobutane-1,1-dicarboxamide], for which the IC50 in experiment [1] is less than 0.05 µM; in experiment [2], less than 0.05 µM; in experiment [3], 0.05 to 0.5 µM.
As to `COc1cc2c(Oc3ccc(NC(=O)[C@@]4(C(=O)Nc5ccc(F)cc5)[C@H](C)[C@@H]4C)cc3F)ccnc2cc1OCCCN1CCN(C)CC1` [Example 366, (1r,2R,3S)-N-{3-fluoro-4-[(6-(methyloxy)-7-{[3-(4-methylpiperazin-1-yl)propyl]oxy}quinolin-4-yl)oxy]phenyl}-N′-(4-fluorophenyl)-2,3-dimethylcyclopropane-1,1-dicarboxamide], the IC50 in experiment [1] is less than 0.05 µM; in experiment [2] it was 0.05 to 0.5 µM; in experiment [3] it was 0.05 to 0.5 µM.
